Source: the supplement of paper PMC10307832

Assays:
Assay in all cases: relative viability (nuclei count vs DMSO), 5 days (fraction); higher = more cells survive
Dactolisib + Vorinostat = compound: Cn1c(=O)n(-c2ccc(C(C)(C)C#N)cc2)c2c3cc(-c4cnc5ccccc5c4)ccc3ncc21 [Dactolisib] + O=C(CCCCCCC(=O)Nc1ccccc1)NO [Vorinostat] (partner 1 µM)
Summary of the method: (§1)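 Dosing by pin tool came one day after lung cancer cell lines were seeded in 1536-well plates, using either one drug or a fixed anchor-drug dose plus five library-drug doses (not always all listed) in √10 steps. After 5 days, nuclei were counted on 4× images. Relative viability is treated-well nuclei count divided by vehicle-well nuclei count, and values are medians of duplicate plates.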

AZ505 + Olaparib = compound: C1CCC(CC1)N(CCNCCC2=C3C(=C(C=C2)O)NC(=O)CO3)C(=O)CCNCCC4=CC(=C(C=C4)Cl)Cl [AZ505] + O=C(c1cc(Cc2n[nH]c(=O)c3ccccc23)ccc1F)N1CCN(C(=O)C2CC2)CC1 [Olaparib] (partner 8 µM)
Summary of the method: as §1

AZ505 + Pemetrexed = compound: C1CCC(CC1)N(CCNCCC2=C3C(=C(C=C2)O)NC(=O)CO3)C(=O)CCNCCC4=CC(=C(C=C4)Cl)Cl [AZ505] + Nc1nc2[nH]cc(CCc3ccc(C(=O)N[C@@H](CCC(=O)O)C(=O)O)cc3)c2c(=O)[nH]1 [Pemetrexed] (partner 0.2 µM)
Summary of the method: as §1

Dactolisib + Pictilisib = compound: Cn1c(=O)n(-c2ccc(C(C)(C)C#N)cc2)c2c3cc(-c4cnc5ccccc5c4)ccc3ncc21 [Dactolisib] + CS(=O)(=O)N1CCN(Cc2cc3nc(-c4cccc5[nH]ncc45)nc(N4CCOCC4)c3s2)CC1 [Pictilisib] (partner 1 µM)
Summary of the method: as §1

Cell Line	relative viability (Dactolisib + Vorinostat; first compound 0.002 µM)	relative viability (Dactolisib + Vorinostat; first compound 0.006325 µM)	relative viability (Dactolisib + Vorinostat; first compound 0.02 µM)	relative viability (Dactolisib + Vorinostat; first compound 0.06325 µM)	relative viability (Dactolisib + Vorinostat; first compound 0.2 µM)	relative viability (AZ505 + Olaparib; first compound 0.08 µM)	relative viability (AZ505 + Olaparib; first compound 0.253 µM)	relative viability (AZ505 + Olaparib; first compound 0.8 µM)	relative viability (AZ505 + Olaparib; first compound 8 µM)	relative viability (AZ505 + Pemetrexed; first compound 0.08 µM)	relative viability (AZ505 + Pemetrexed; first compound 0.253 µM)	relative viability (AZ505 + Pemetrexed; first compound 0.8 µM)	relative viability (AZ505 + Pemetrexed; first compound 8 µM)	relative viability (Dactolisib + Pictilisib; first compound 0.002 µM)	relative viability (Dactolisib + Pictilisib; first compound 0.006325 µM)	relative viability (Dactolisib + Pictilisib; first compound 0.02 µM)	relative viability (Dactolisib + Pictilisib; first compound 0.06325 µM)	relative viability (Dactolisib + Pictilisib; first compound 0.2 µM)	relative viability (AZ505 + Olaparib; first compound 2.53 µM)	relative viability (AZ505 + Pemetrexed; first compound 2.53 µM)
LU99A	0.417	0.368	0.407	0.246	0.162	0.279	0.298	0.289	0.265	0.199	0.22	0.19	0.199	0.299	0.285	0.269	0.222	0.179		
LXF-289	0.879	0.789	0.741	0.815	0.565	0.988	1.11	1.01	1.01	0.84	0.92	0.785	0.903	0.9	0.851	0.749	0.673	0.613	1.05	0.932
NCI-H23	0.512	0.49	0.462	0.18	0.176	0.256	0.362	0.305	0.337	0.638	0.506	0.604	0.668	0.503	0.529	0.37	0.252	0.23	0.364	0.73
NCI-H322M	0.941	0.862	0.734	0.599	0.609	0.576		0.707	0.844	0.604		0.61	0.648	0.504	0.564	0.34	0.448	0.461	0.768	0.647
NCI-H358	0.68	0.652	0.503	0.154	0.165	0.569	0.761	0.584	0.59	0.177	0.227	0.158	0.184	0.345	0.302	0.337	0.196	0.215	0.604	0.179
NCI-H441	0.841	0.675	0.802	0.276	0.34	0.527	0.503	0.586	0.621	0.254	0.272	0.278	0.262	0.758	0.464	0.412	0.285	0.233	0.57	0.308
NCI-H460	0.643	0.659	0.723	0.127	0.173	0.365	0.477	0.388	0.477	0.063	0.0565	0.0644	0.0621	0.423	0.355	0.289	0.302	0.306	0.46	0.0703
